Where two headings read alike, the source gives them in different places.
What was measured:
rat A2A receptors (rA2A) = target: T1, rat A2A receptors (rA2A) (Rattus norvegicus, UniProt P30543); experiment: Displacement of [3H]CGS 21680 binding in rat striatal membranes; conditions: read-out: rA2A Ki or IC50
T1 construct: to A2A receptors from rat striatal membranes was performed as described; from tissue; host or cells: rat striatal membranes
Experimental: (§1) Bruns, R. F. et al., Naunyn-Schmiedeberg's Arch. […] Binding of [^3H]R-N^6-phenylisopropyladenosine. Schwabe, U. et al., Naunyn-Schmiedeberg's Arch. […] (Dupont NEN, Boston, Mass.) to A2A receptors from rat striatal membranes was performed as described. […] All non-radioactive compounds were initially dissolved in DMSO, and diluted with buffer to the final concentration, where the amount of DMSO never exceeded 2%. Incubations were terminated by rapid filtration over Whatman GF/B filters, using a Brandell cell harvester (Brandell, Gaithersburg, Md.). The tubes were rinsed three times with 3 mL buffer each.
(§2) At least six different concentrations of competitor, spanning 3 orders of magnitude adjusted appropriately for the IC50 of each compound, were used. IC50 values, calculated with the nonlinear regression method implemented in (Graph-Pad Prism, San Diego, Calif.), were converted to apparent Ki values as described. Linden, J., J. Cycl. Nucl.

[1] = target: T2, human A2B receptors (hA2B) (Homo sapiens, UniProt P29275); experiment: Radioligand binding ([125I]ABOPX / [3H]ZM241385) at human A2B receptors expressed in HEK-293 cells; conditions: for Ki: Table 2, read-out: hA2B Ki or IC50
T2 construct: expressed in transfected cells; host or cells: HEK-293 (HEK-A2B, G418-selected)
T2 sequence (P29275 1-332): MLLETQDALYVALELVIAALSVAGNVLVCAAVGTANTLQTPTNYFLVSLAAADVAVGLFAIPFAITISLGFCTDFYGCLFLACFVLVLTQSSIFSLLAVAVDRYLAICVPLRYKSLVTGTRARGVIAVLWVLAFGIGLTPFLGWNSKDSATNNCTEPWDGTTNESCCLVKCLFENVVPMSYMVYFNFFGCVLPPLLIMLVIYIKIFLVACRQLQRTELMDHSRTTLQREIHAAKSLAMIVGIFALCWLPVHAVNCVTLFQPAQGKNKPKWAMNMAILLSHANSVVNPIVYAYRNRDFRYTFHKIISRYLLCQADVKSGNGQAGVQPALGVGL

human A3 receptors (hA3) = target: T3, human A3 receptors (hA3) (Homo sapiens, UniProt P0DMS8); experiment: Displacement of [125I]ABA binding at human A3 receptors expressed in HEK-293 cells; conditions: Table 2; read-out: hA3 Ki or IC50
T3 construct: expressed in transfected cells; host or cells: HEK-293
T3 sequence (P0DMS8 1-318): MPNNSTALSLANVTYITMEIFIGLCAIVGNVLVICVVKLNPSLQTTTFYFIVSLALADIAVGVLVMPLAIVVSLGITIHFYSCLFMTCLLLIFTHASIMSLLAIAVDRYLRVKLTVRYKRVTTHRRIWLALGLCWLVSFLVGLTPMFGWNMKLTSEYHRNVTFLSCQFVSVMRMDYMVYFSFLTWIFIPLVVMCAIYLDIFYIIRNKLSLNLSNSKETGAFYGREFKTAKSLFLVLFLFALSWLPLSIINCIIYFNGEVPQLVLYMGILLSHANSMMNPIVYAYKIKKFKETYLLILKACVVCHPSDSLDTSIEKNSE

[2] = target: T4, recombinant human A1 receptors (hA1) (Homo sapiens, UniProt P30542); experiment: Radioligand binding ([3H]CPX) at recombinant human A1 receptors in HEK-293 cells; conditions: read-out: hA1 Ki or IC50; Table 2
T4 sequence (P30542 1-326): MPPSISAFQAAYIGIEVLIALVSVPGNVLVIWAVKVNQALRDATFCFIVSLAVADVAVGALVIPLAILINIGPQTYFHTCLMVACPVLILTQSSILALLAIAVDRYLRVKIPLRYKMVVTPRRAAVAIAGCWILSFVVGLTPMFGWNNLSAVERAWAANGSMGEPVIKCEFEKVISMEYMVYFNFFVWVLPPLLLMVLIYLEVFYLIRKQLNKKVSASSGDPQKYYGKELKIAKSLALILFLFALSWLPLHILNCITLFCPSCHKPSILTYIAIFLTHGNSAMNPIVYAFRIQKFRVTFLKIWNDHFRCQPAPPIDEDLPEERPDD
Experimental: (§3) The potency of the xanthine derivatives at human A2B receptors was evaluated using two binding assays. […] In order to determine selectivity, the xanthines were evaluated using standard binding assays at A1, A2A, and A3 receptors.

[3] = target: recombinant human A2A receptors (hA2A) (Homo sapiens, UniProt P29274); experiment: Radioligand binding (125I-ZM241385) at recombinant human A2A receptors in HEK-293 cells; conditions: read-out: hA2A Ki or IC50
Sequence of recombinant human A2A receptors (hA2A) (P29274 whole entry): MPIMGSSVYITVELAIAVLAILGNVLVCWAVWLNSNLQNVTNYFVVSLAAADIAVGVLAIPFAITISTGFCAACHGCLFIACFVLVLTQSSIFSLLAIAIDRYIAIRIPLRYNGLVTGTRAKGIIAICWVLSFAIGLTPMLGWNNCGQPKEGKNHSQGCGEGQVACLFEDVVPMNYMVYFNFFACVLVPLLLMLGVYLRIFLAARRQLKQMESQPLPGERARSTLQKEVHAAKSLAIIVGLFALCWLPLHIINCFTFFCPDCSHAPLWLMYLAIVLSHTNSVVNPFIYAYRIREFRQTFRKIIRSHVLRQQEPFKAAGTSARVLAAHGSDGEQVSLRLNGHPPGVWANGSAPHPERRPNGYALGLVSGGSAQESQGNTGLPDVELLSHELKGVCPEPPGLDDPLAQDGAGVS
Experimental: as §3

rat A1 receptors (rA1) = target: T5, rat A1 receptors (rA1) (Rattus norvegicus, UniProt P25099); experiment: Displacement of [3H]R-PIA binding in rat brain (cerebral cortical) membranes; conditions: Table 2; read-out: rA1 Ki or IC50
T5 construct: to A1 receptors from rat cerebral cortical membranes; from tissue; host or cells: rat cerebral cortical (brain) membranes
T5 sequence (P25099 1-326): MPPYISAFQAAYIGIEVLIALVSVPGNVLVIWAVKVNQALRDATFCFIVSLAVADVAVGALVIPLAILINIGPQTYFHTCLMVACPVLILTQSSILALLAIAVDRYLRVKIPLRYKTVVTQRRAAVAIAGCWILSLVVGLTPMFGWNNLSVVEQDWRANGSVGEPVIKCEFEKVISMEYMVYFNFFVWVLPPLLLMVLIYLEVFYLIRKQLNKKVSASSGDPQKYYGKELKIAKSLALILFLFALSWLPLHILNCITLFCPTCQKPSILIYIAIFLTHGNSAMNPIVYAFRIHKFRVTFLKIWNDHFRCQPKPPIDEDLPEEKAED
Experimental: as §1, §2

T1 sequence (P30543 whole entry): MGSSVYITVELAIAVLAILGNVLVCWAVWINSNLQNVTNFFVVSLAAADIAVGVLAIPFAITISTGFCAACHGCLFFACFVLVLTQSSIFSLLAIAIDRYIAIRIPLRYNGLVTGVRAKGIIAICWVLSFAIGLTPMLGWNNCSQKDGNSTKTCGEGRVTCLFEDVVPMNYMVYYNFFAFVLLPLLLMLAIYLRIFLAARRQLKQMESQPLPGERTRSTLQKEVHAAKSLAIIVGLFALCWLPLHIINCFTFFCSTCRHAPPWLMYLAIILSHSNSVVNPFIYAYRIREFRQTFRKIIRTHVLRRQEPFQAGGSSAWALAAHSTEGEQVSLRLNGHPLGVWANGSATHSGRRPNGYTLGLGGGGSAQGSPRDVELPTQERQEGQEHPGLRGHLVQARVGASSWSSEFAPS

Row | Structure (SMILES) | Ki (rat A2A receptors (rA2A); Table 2) [nM] | Ki [1] [nM] | Ki (human A3 receptors (hA3)) [nM] | melting point [°C] | Ki [2] [nM] | Ki ([3]; Table 2) [nM] | Ki (rat A1 receptors (rA1)) [nM] | Ki (rat A2A receptors (rA2A)) [nM] | Ki [3] [nM] | selectivity for human A2B versus human A1 receptors [1] [fold] | selectivity for human A2B versus human A2A receptors [1] [fold] | selectivity for human A2B versus human A3 receptors [1] [fold] | selectivity for human A2B versus rat A1 receptors [1] [fold] | selectivity for human A2B versus rat A2A receptors [1] [fold]
1 | CCCn1c(=O)c2[nH]c(-c3ccc(OCC(=O)Nc4ccccc4)cc3)nc2n(CCC)c1=O [Compound 12, 8-[4-[(Phenylcarbamoylmethyl)oxy]phenyl]-1,3-di-(n-propyl)-xanthine] | 45.6 ± 1.4 | 1.48 ± 0.63 | 137 ± 54 | 301 to 302 | 40.1 ± 5.1 | 25.8 ± 4.5 |  |  |  |  |  |  |  | 
2 | CCCn1c(=O)c2[nH]c(-c3ccc(OCC(=O)NCc4ccccc4)cc3)nc2n(CCC)c1=O [Compound 13, 8-[4-[(Benzylcarbamoylmethyl)oxy]phenyl]-1,3-di-(n-propyl)-xanthine] |  |  | 79.2 ± 17.8 | 268 | 54.7 ± 21.2 |  | 5.02 ± 0.55 | 25.9 ± 7.6 | 23.8 ± 5.71 |  |  |  |  | 
3 | CCCn1c(=O)c2[nH]c(-c3ccc(OCC(=O)N(Cc4ccccc4)Cc4ccccc4)cc3)nc2n(CCC)c1=O [Compound 15, 8-[4-[(Dibenzylcarbamoylmethyl)oxy]phenyl]-1,3-di-(n-propyl)-xanthine] | 2750 | 9.88 ± 1.05 | 284 ± 14 | 230 | 690 ± 98 | 642 ± 198 | 167 ± 49 |  |  |  |  |  |  | 
4 | CCCn1c(=O)c2[nH]c(-c3ccc(OCC(=O)Nc4ccccc4C(C)=O)cc3)nc2n(CCC)c1=O [Compound 18, 8-[4-[((2-Acetylphenyl)carbamoylmethyl)oxy]phenyl]-1,3-di-(n-propyl)xanthine] | 434 ± 129 | 2.74 ± 1.01 | 61.9 ± 3.4 | 294 | 335 ± 64 | 431 ± 176 | 27.9 ± 1.6 |  |  | 120 | 160 | 23 | 10 | 160
5 | CCCn1c(=O)c2[nH]c(-c3ccc(OCC(=O)Nc4cccc(C(C)=O)c4)cc3)nc2n(CCC)c1=O [Compound 19, 8-[4-[((3-Acetylphenyl)carbamoylmethyl)oxy]phenyl]-1,3-di-(n-propyl)xanthine] | 949 ± 394 | 4.92 ± 0.55 | 352 ± 69 | 269 to 270 | 234 ± 28 | 58.9 ± 7.1 | 439 ± 111 |  |  |  |  |  |  | 
6 | CCCn1c(=O)c2[nH]c(-c3ccc(OCC(=O)Nc4ccc(C(=O)OC)cc4)cc3)nc2n(CCC)c1=O [Compound 21, 8-[4-[((4-Methoxycarbonyl)phenylcarbamoylmethyl)oxy]phenyl]-1,3-di-(n-propyl)xanthine] | 541 ± 128 | 3.93 ± 1.35 | 363 ± 148 | > 310 | 225 ± 9 | 3100 | 38.4 ± 3.9 |  |  |  |  |  |  | 

Reference: patent publication US6545002B1 (University of Virginia Patent Foundation, priority 1999, dated 2003)
